Results published in publication PMC12775434, “Ultra-large virtual screening unveils potent agonists of the neuromodulatory orphan receptor GPR139” (Nature Communications, 2025).
Values joined by “and” are separate entries in the source; they are usually repeats but may differ in a detail not shown here. Equal entries are not always repeated.

Key:
GPR139 [1] = target: T1, GPR139 (Homo sapiens, UniProt Q6DWJ6); assay: Inositol monophosphate (IP1) accumulation assay, GPR139-CHOk1; type: cell-based; details: for IP1 response (% of Cmp 1a): replicate experiments
T1 sequence (Q6DWJ6 1-353): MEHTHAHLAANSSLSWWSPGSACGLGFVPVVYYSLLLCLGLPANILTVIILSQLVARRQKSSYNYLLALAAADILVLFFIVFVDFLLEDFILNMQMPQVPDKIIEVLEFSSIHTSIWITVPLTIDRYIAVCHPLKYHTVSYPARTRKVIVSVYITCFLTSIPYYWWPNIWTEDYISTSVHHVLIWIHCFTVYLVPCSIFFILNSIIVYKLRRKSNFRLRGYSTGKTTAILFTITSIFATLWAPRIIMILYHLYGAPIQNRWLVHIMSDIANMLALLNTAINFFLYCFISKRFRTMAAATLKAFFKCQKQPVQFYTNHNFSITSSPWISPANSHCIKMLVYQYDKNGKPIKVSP
Experimental: Primary screening and pharmacological characterization of compounds were performed using a CHO-K1 cell line that stably expresses human GPR139 (GPR139-CHOk1). The GPR139-CHOk1 cell line was kindly provided by H. Lundbeck A/S, Denmark[24]. GPR139-CHOk1 cells were grown in Ham’s F-12 Kaighn’s Modification Medium (ThermoFisher #21127030) supplemented with 10% dialyzed fetal bovine serum (US origin, ThermoFisher #26400044), 100 units/mL Penicillin-Streptomycin (ThermoFisher #15140122), and 1 mg/mL Geneticin (ThermoFisher #11811031). […] M1R-CHOk1 cells were purchased from The Missouri S&T cDNA Resource Center (#CEM100TN00). M1R-CHOk1 cells were grown in Ham’s F12 Medium (ThermoFisher #21765029) supplemented with 10% fetal bovine serum (Brazilian origin, ThermoFisher #10270106), 100 units/mL Penicillin-Streptomycin, and 0.25 mg/mL Geneticin. HEK293A cells transiently transfected with GPR139 were used for additional pharmacological assessment of signaling pathways activated by GPR139. HEK239A cells were generously provided by Dr. Asuka Inoue, Tohoku University, Japan. HEK293A cells were grown in Dulbecco’s Modified Eagle Medium (ThermoFisher #31966047) supplemented with 10% dialyzed fetal bovine serum and 100 units/mL Penicillin-Streptomycin. Cell lines were maintained at 37 °C in humidified incubator equilibrated with 5% CO2.
HTRF IP-One Gq kit (Cisbio #62IPAPEC) was used to detect the accumulation of inositol monophosphate (IP1) as described in the work by Shehata et al.[26]. GPR139-CHOk1 cells were dissociated and resuspended in HEPES buffer. 50,000 cells in 5 µL and 5 µL test compounds diluted from DMSO stocks (final DMSO concentration of maximally 0.3%) in HEPES buffer supplemented with 40 mM LiCl were mixed in each well of white 384-well OptiPlate (PerkinElmer #6007290). The cells were incubated for 1 h at 37 °C. Then, 10 µL detection reagent composed of 2.5% Eu3 + -anti-IP1 antibody and 2.5% IP1-d2 diluted in lysis buffer was added, and the cells were incubated for 1 h at room temperature before measurements. Measurements were performed on EnVision Multimode Plate Reader (PerkinElmer) using excitation light of 340 nm and emission light of 615 nm and 665 nm. The time resolved-fluorescence resonance energy transfer (TR-FRET) 665 nm/615 nm ratio, which is inversely proportional to the IP1 accumulation, was used to determine the IP1 response.
Pharmacological data and statistical analyses were performed in GraphPad Prism v9–10 (Graphpad Software Inc., San Diego, CA), which are also specifically described in the figure and table legends. The functional assay responses were normalized to buffer (0%) and Lundbeck Cmp 1a or JNJ-63533054 (100%), for Ca^2+ and IP1 experiments in the GPR139-CHOk1 stable cell line or Ca^2+, G protein activation, and arrestin-3 recruitment experiments in the HEK293A cells transiently transfected with GPR139, respectively. Data are from at least three independent experiments, unless stated otherwise. Concentration-response curves were fitted applying non-linear regression using the log (agonist) versus response model with variable slope. ANOVA was applied for comparing results and determining statistical significance. Comparison of responses to the reference was performed using one-way ANOVA with Dunnett’s multiple comparisons test at significance threshold of p < 0.05. Comparison of responses across assays and ligands was performed using two-way ANOVA with Tukey’s multiple comparisons test at a significance threshold of p < 0.05.

GPR139 [2] = target: T1, GPR139; assay: Ca2+ mobilization assay, agonist mode, stable GPR139-CHOk1 cell line; type: cell-based
In short: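 Agonist activity of compounds is assessed in stably transfected CHO-K1 cells using the calcium dye Fluo-4 at 37 °C in HEPES-buffered HBSS (pH 7.4). Efficacy is expressed relative to the reference agonist Lundbeck Cmp 1a, set as 100%.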

[3] = tested on: patients with schizophrenia and major depressive disorder; details: cited from earlier work

C[C@H](NC(=O)Cn1nnc2ccccc2c1=O)c1ccc(OC(F)(F)F)cc1 [TAK-041, reference compound]
Emax (GPR139 [1]; Supplementary Table 4, normalized to Lundbeck Cmp 1a, read-out: Emax (%), IP1 accumulation): 101 ± 9% | IP1 response (% of Cmp 1a) (GPR139 [1]; log [Compound] M -4.5): 112 % of Cmp 1a and 93 % of Cmp 1a and 83 % of Cmp 1a and 114 % of Cmp 1a | IP1 response (% of Cmp 1a) (GPR139 [1]; log [Compound] M -5.0): 115 % of Cmp 1a and 78 % of Cmp 1a and 92 % of Cmp 1a and 118 % of Cmp 1a | IP1 response (% of Cmp 1a) (GPR139 [1]; log [Compound] M -5.5): 87 % of Cmp 1a and 81 % of Cmp 1a and 75 % of Cmp 1a and 93 % of Cmp 1a | IP1 response (% of Cmp 1a) (GPR139 [1]; log [Compound] M -6.0): 84 % of Cmp 1a and 66 % of Cmp 1a and 75 % of Cmp 1a and 94 % of Cmp 1a | IP1 response (% of Cmp 1a) (GPR139 [1]; log [Compound] M -6.5): 86 % of Cmp 1a and 56 % of Cmp 1a and 45 % of Cmp 1a and 98 % of Cmp 1a | IP1 response (% of Cmp 1a) (GPR139 [1]; log [Compound] M -7.0): 63 % of Cmp 1a (2×) and 41 % of Cmp 1a and 62 % of Cmp 1a | IP1 response (% of Cmp 1a) (GPR139 [1]; log [Compound] M -7.5): 51 % of Cmp 1a and 26 % of Cmp 1a and 33 % of Cmp 1a and 49 % of Cmp 1a | IP1 response (% of Cmp 1a) (GPR139 [1]; log [Compound] M -8.0): 28 % of Cmp 1a and -3.49 % of Cmp 1a and 8 % of Cmp 1a and 21 % of Cmp 1a | Ca2+ signal (% of Cmp 1a) (GPR139 [2]; log [Compound] M -5.5, replicate experiments): 99 % of Cmp 1a and 95 % of Cmp 1a and 92 % of Cmp 1a | Ca2+ signal (% of Cmp 1a) (GPR139 [2]; log [Compound] M -6.0, replicate experiments): 80 % of Cmp 1a and 94 % of Cmp 1a and 83 % of Cmp 1a | Ca2+ signal (% of Cmp 1a) (GPR139 [2]; log [Compound] M -6.5, replicate experiments): 83 % of Cmp 1a and 80 % of Cmp 1a (2×) | Ca2+ signal (% of Cmp 1a) (GPR139 [2]; log [Compound] M -7.0, replicate experiments): 63 % of Cmp 1a and 62 % of Cmp 1a (2×) | Ca2+ signal (% of Cmp 1a) (GPR139 [2]; log [Compound] M -7.5, replicate experiments): 35 % of Cmp 1a and 36 % of Cmp 1a and 41 % of Cmp 1a | Ca2+ signal (% of Cmp 1a) (GPR139 [2]; log [Compound] M -8.0, replicate experiments): 16 % of Cmp 1a and 11 % of Cmp 1a and 17 % of Cmp 1a | Ca2+ signal (% of Cmp 1a) (GPR139 [2]; log [Compound] M -8.5, replicate experiments): 0 % of Cmp 1a | Ca2+ signal (% of Cmp 1a) (GPR139 [2]; log [Compound] M -9.0, replicate experiments): 0 % of Cmp 1a | Ca2+ signal (% of Cmp 1a) (GPR139 [2]; log [Compound] M = -5.5, individual replicate columns): 99 % of Cmp 1a and 95 % of Cmp 1a and 92 % of Cmp 1a | Ca2+ signal (% of Cmp 1a) (GPR139 [2]; log [Compound] M = -6.0, individual replicate columns): 80 % of Cmp 1a and 94 % of Cmp 1a and 83 % of Cmp 1a | Ca2+ signal (% of Cmp 1a) (GPR139 [2]; log [Compound] M = -6.5, individual replicate columns): 83 % of Cmp 1a and 80 % of Cmp 1a (2×) | Ca2+ signal (% of Cmp 1a) (GPR139 [2]; log [Compound] M = -7.0, individual replicate columns): 63 % of Cmp 1a and 62 % of Cmp 1a (2×) | Ca2+ signal (% of Cmp 1a) (GPR139 [2]; log [Compound] M = -7.5, individual replicate columns): 35 % of Cmp 1a and 36 % of Cmp 1a and 41 % of Cmp 1a | Ca2+ signal (% of Cmp 1a) (GPR139 [2]; log [Compound] M = -8.0, individual replicate columns): 16 % of Cmp 1a and 11 % of Cmp 1a and 17 % of Cmp 1a | Ca2+ signal (% of Cmp 1a) (GPR139 [2]; log [Compound] M = -8.5, individual replicate columns): 0 % of Cmp 1a | Ca2+ signal (% of Cmp 1a) (GPR139 [2]; log [Compound] M = -9.0, individual replicate columns): 0 % of Cmp 1a | Emax (GPR139 [2]; read-out: Emax (%), Ca2+ mobilization): 100 ± 3% | outcome of phase II trials ([3]; anhedonia in schizophrenia and major depressive disorder): did not meet the primary endpoints | safety and tolerability [3]: good safety profile and was well tolerated
